Reference: PMC7778606, “Development of the phenylpyrazolo[3,4-d]pyrimidine-based, insulin-like growth factor receptor/Src/AXL-targeting small molecule kinase inhibitor” (Theranostics, 2021)

Experiments:
[1] = molecular target: T1, IKK-beta (Homo sapiens, UniProt O14920); experiment: KINOMEscan competition binding assay; settings: LL6 at 10 μM; read-out: Percent Control
T1 construct: purchased DiscoverX KINOMEscan
Procedure: (§1) Kd values were obtained by KINOMEscan from DiscoverX (San Diego, CA, USA). To briefly summarize, Kd was measured by a competition binding assay that quantitatively measures the ability of a compound to compete with an immobilized ligand. […] Dose response curves of 11 points are obtained for Kd values, which are measured in duplicate. See more details in the cited references [39]-[42] and see also at www.discoverx.com.

[2] = molecular target: T2, BRAF (Homo sapiens, UniProt P15056); experiment: KINOMEscan competition binding assay; settings: LL6 at 10 μM; read-out: Percent Control
T2 construct: purchased DiscoverX KINOMEscan
Procedure: as §1

[3] = molecular target: T3, p38-alpha (Homo sapiens, UniProt Q16539); experiment: KINOMEscan competition binding assay; settings: LL6 at 10 μM; read-out: Percent Control
T3 construct: purchased DiscoverX KINOMEscan
Procedure: as §1

[4] = molecular target: T4, EGFR (Homo sapiens, UniProt P00533); experiment: KINOMEscan competition binding assay; settings: LL6 at 10 μM; read-out: Percent Control
T4 construct: purchased DiscoverX KINOMEscan
Procedure: as §1

[5] = molecular target: T5, ULK2 (Homo sapiens, UniProt Q8IYT8); experiment: KINOMEscan competition binding assay; settings: LL6 at 10 μM; read-out: Percent Control
T5 construct: purchased DiscoverX KINOMEscan
Procedure: as §1

[6] = molecular target: T6, ERK1 (Homo sapiens, UniProt P27361); experiment: KINOMEscan competition binding assay; settings: LL6 at 10 μM; read-out: Percent Control
T6 construct: purchased DiscoverX KINOMEscan
Procedure: as §1

[7] = molecular target: T7, PRKCE (Homo sapiens, UniProt Q02156); experiment: KINOMEscan competition binding assay; settings: LL6 at 10 μM; read-out: Percent Control
T7 construct: purchased DiscoverX KINOMEscan
Procedure: as §1

[8] = molecular target: T8, LKB1 (Homo sapiens, UniProt Q15831); experiment: KINOMEscan competition binding assay; settings: LL6 at 10 μM; read-out: Percent Control
T8 construct: purchased DiscoverX KINOMEscan
Procedure: as §1

[9] = molecular target: T9, PIK3C2B (Homo sapiens, UniProt O00750); experiment: KINOMEscan competition binding assay; settings: LL6 at 10 μM; read-out: Percent Control
T9 construct: purchased DiscoverX KINOMEscan
Procedure: as §1

[10] = molecular target: T10, PAK2 (Homo sapiens, UniProt Q13177); experiment: KINOMEscan competition binding assay; settings: LL6 at 10 μM; read-out: Percent Control
T10 construct: purchased DiscoverX KINOMEscan
Procedure: as §1

[11] = molecular target: T11, CDK9 (Homo sapiens, UniProt P50750); experiment: KINOMEscan competition binding assay; settings: LL6 at 10 μM; read-out: Percent Control
T11 construct: purchased DiscoverX KINOMEscan
Procedure: as §1

[12] = molecular target: T12, SNARK (Homo sapiens, UniProt Q9H093); experiment: KINOMEscan competition binding assay; settings: LL6 at 10 μM; read-out: Percent Control
T12 construct: purchased DiscoverX KINOMEscan
Procedure: as §1

[13] = molecular target: T13, EGFR(L858R) (Homo sapiens, UniProt P00533, L858R); experiment: KINOMEscan competition binding assay; settings: LL6 at 10 μM; read-out: Percent Control
T13 construct: purchased DiscoverX KINOMEscan
Procedure: as §1

[14] = molecular target: T14, CSF1R (Homo sapiens, UniProt P07333); experiment: KINOMEscan competition binding assay
T14 construct: purchased DiscoverX (KINOMEscan service)
T14 sequence (P07333 20-972): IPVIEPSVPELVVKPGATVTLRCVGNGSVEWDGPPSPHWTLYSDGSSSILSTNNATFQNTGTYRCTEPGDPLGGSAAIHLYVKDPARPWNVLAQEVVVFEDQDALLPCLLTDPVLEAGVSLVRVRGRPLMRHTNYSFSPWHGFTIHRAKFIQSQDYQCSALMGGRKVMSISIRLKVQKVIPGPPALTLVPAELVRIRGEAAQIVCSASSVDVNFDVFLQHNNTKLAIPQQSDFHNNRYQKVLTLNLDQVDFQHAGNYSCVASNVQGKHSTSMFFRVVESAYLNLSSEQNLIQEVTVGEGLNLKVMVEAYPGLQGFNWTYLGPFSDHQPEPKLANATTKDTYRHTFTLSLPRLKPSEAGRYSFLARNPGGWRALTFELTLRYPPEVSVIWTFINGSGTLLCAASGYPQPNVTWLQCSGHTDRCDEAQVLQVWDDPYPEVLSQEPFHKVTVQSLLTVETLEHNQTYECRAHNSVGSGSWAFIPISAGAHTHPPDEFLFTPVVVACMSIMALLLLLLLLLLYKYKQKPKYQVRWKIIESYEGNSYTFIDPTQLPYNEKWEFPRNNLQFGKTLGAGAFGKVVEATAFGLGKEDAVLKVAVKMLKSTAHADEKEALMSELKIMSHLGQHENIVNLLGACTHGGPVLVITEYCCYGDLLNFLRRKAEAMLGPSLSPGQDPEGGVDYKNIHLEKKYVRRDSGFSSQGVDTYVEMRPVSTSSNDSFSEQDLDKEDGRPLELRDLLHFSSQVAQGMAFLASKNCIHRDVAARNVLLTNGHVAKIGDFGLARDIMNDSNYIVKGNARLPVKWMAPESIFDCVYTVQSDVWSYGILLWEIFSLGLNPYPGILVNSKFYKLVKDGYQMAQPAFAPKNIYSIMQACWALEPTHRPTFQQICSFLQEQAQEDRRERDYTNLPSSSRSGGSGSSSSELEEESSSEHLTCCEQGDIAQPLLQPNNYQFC
Procedure: as §1

[15] = molecular target: T15, KIT (Homo sapiens, UniProt P10721); experiment: KINOMEscan competition binding assay
T15 construct: purchased DiscoverX (KINOMEscan service)
T15 sequence (P10721 26-976): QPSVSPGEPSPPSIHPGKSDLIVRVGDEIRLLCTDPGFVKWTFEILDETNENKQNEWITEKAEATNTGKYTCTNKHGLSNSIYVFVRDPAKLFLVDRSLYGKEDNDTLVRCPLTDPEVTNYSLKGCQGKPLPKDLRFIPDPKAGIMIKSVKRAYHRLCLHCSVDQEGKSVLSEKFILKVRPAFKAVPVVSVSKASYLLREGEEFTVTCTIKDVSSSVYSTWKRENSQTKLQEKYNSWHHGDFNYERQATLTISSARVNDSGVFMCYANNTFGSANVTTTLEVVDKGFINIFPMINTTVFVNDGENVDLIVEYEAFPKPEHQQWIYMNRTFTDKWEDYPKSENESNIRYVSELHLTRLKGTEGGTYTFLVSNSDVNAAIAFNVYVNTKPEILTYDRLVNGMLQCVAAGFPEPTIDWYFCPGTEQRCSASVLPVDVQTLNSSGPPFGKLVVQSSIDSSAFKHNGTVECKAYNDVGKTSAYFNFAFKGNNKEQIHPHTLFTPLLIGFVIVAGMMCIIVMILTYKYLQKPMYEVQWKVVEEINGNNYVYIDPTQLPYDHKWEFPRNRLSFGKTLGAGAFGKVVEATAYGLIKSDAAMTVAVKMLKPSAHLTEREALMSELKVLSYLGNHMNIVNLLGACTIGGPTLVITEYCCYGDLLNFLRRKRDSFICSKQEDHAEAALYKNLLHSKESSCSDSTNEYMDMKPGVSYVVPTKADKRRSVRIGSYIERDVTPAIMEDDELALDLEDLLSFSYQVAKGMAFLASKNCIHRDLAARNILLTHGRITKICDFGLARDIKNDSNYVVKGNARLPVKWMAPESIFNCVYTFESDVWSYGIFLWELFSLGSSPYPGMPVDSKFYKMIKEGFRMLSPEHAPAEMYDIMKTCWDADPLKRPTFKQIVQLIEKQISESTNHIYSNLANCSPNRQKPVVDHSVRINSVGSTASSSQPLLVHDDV
Procedure: as §1

[16] = molecular target: T16, MET (Homo sapiens, UniProt P08581); experiment: KINOMEscan competition binding assay; settings: LL6 at 10 μM; read-out: Percent Control
T16 construct: purchased DiscoverX KINOMEscan
Procedure: as §1

[17] = molecular target: T17, BMPR2 (Homo sapiens, UniProt Q13873); experiment: KINOMEscan competition binding assay; settings: LL6 at 10 μM; read-out: Percent Control
T17 construct: purchased DiscoverX KINOMEscan
T17 sequence (Q13873 27-1038): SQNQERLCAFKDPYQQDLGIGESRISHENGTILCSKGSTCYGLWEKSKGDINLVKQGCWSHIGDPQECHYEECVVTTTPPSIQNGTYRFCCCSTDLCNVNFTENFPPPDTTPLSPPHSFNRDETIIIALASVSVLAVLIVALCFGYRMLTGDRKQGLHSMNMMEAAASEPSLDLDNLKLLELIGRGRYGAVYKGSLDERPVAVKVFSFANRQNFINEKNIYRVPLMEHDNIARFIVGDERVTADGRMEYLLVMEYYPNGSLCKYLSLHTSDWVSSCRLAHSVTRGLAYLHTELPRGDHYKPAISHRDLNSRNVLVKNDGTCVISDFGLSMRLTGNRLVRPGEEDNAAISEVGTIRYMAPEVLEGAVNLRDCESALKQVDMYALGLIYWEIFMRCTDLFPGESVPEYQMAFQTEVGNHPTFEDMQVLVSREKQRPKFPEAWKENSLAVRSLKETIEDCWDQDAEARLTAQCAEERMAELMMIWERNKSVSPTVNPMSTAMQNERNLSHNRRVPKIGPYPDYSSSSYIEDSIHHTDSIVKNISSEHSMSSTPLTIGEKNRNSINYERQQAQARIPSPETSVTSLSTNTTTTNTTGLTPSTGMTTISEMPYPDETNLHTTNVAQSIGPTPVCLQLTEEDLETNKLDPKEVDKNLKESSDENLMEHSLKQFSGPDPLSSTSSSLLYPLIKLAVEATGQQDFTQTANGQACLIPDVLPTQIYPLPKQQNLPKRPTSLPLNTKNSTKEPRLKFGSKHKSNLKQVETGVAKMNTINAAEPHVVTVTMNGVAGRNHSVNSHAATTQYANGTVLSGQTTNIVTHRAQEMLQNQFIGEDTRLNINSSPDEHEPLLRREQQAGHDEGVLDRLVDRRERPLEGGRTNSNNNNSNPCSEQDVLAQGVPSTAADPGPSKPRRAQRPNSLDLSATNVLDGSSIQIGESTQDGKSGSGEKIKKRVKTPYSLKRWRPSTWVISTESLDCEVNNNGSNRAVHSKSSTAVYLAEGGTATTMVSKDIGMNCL
Procedure: as §1

[18] = molecular target: T18, MEK1 (Homo sapiens, UniProt Q02750); experiment: KINOMEscan competition binding assay; settings: LL6 at 10 μM; read-out: Percent Control
T18 construct: purchased DiscoverX KINOMEscan
T18 sequence (Q02750 whole entry): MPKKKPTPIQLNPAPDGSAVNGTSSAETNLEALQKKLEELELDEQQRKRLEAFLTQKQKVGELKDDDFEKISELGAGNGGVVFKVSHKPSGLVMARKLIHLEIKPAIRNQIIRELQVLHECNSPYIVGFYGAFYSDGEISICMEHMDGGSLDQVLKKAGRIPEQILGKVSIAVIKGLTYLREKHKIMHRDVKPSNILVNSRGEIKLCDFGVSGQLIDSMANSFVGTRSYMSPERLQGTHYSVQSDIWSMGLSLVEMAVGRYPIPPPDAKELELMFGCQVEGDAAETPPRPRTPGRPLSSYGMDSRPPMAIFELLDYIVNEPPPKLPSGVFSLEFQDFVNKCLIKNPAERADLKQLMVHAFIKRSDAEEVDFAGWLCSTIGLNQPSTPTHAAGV
Procedure: as §1

[19] = molecular target: T19, TIE2 (Homo sapiens, UniProt Q02763); experiment: KINOMEscan competition binding assay; settings: LL6 at 10 μM; read-out: Percent Control
T19 construct: purchased DiscoverX KINOMEscan
Procedure: as §1

[20] = molecular target: T20, BRAF(V600E) (Homo sapiens, UniProt P15056, V600E); experiment: KINOMEscan competition binding assay; settings: LL6 at 10 μM; read-out: Percent Control
T20 construct: purchased DiscoverX KINOMEscan
Procedure: as §1

[21] = molecular target: T21, CDK3 (Homo sapiens, UniProt Q00526); experiment: KINOMEscan competition binding assay; settings: LL6 at 10 μM; read-out: Percent Control
T21 construct: purchased DiscoverX KINOMEscan
Procedure: as §1

[22] = molecular target: T22, GSK3B (Homo sapiens, UniProt P49841); experiment: KINOMEscan competition binding assay; settings: LL6 at 10 μM; read-out: Percent Control
T22 construct: purchased DiscoverX KINOMEscan
T22 sequence (P49841 whole entry): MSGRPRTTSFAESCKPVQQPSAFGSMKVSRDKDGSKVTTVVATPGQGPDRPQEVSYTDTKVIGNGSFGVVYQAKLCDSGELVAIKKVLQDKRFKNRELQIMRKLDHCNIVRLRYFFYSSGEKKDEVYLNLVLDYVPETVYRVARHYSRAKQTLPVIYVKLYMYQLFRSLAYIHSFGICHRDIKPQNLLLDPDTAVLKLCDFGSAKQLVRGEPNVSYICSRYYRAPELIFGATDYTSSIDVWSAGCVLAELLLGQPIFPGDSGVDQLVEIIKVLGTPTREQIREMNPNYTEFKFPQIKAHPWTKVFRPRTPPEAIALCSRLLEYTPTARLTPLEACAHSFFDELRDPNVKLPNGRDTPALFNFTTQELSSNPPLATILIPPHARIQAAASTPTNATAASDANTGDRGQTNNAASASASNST
Procedure: as §1

[23] = molecular target: T23, CDK11 (Homo sapiens, UniProt Q9BWU1); experiment: KINOMEscan competition binding assay; settings: LL6 at 10 μM; read-out: Percent Control
T23 construct: purchased DiscoverX KINOMEscan
Procedure: as §1

[24] = molecular target: T24, KIT(V559D,T670I) (Homo sapiens, UniProt P10721, T670I/V559D); experiment: KINOMEscan competition binding assay; settings: LL6 at 10 μM; read-out: Percent Control
T24 construct: purchased DiscoverX KINOMEscan
T24 sequence (P10721 26-976 V559D/T670I): as the sequence (P10721 26-976) above, with V534D, T645I counted along it
Procedure: as §1

[25] = molecular target: T25, PLK3 (Homo sapiens, UniProt Q9H4B4); experiment: KINOMEscan competition binding assay; settings: LL6 at 10 μM; read-out: Percent Control
T25 construct: purchased DiscoverX KINOMEscan
Procedure: as §1

[26] = molecular target: T26, CDK2 (Homo sapiens, UniProt P24941); experiment: KINOMEscan competition binding assay; settings: LL6 at 10 μM; read-out: Percent Control
T26 construct: purchased DiscoverX KINOMEscan
Procedure: as §1

[27] = molecular target: T27, RIOK2 (Homo sapiens, UniProt Q9BVS4); experiment: KINOMEscan competition binding assay; settings: LL6 at 10 μM; read-out: Percent Control
T27 construct: purchased DiscoverX KINOMEscan
Procedure: as §1

[28] = molecular target: T28, MEK2 (Homo sapiens, UniProt P36507); experiment: KINOMEscan competition binding assay; settings: LL6 at 10 μM; read-out: Percent Control
T28 construct: purchased DiscoverX KINOMEscan
Procedure: as §1

[29] = molecular target: T29, FGFR3 (Homo sapiens, UniProt P22607); experiment: KINOMEscan competition binding assay; settings: LL6 at 10 μM; read-out: Percent Control
T29 construct: purchased DiscoverX KINOMEscan
Procedure: as §1

[30] = molecular target: T30, PLK4 (Homo sapiens, UniProt O00444); experiment: KINOMEscan competition binding assay; settings: LL6 at 10 μM; read-out: Percent Control
T30 construct: purchased DiscoverX KINOMEscan
Procedure: as §1

[31] = molecular target: T31, TSSK1B (Homo sapiens, UniProt Q9BXA7); experiment: KINOMEscan competition binding assay; settings: LL6 at 10 μM; read-out: Percent Control
T31 construct: purchased DiscoverX KINOMEscan
T31 sequence (Q9BXA7 whole entry): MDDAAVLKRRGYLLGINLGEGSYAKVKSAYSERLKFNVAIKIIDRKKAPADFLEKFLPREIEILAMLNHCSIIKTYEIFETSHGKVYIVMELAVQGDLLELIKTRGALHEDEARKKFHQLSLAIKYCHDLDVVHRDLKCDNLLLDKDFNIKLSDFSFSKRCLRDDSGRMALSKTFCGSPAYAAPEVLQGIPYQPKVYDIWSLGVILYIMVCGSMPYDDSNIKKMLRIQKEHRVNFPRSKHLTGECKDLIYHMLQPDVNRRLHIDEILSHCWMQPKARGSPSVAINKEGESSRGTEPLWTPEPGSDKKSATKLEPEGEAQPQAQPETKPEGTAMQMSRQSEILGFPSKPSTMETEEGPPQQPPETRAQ
Procedure: as §1

[32] = molecular target: T32, PIK3CG (Homo sapiens, UniProt P48736); experiment: KINOMEscan competition binding assay; settings: LL6 at 10 μM; read-out: Percent Control
T32 construct: purchased DiscoverX KINOMEscan
Procedure: as §1

[33] = system: H1944 and A549 NSCLC cells; experiment: Apoptosis (PARP cleavage, chromatin condensation, sub-G1 phase); type: cell-based, human; settings: LL6 2.5 µM; LDB = linsitinib 2 µM, dasatinib 50 nM, bemcentinib 100 nM
Procedure: Before harvesting, the cells were stimulated with 10% FBS for 20 min. Total cell lysates were prepared with modified radioimmunoprecipitation assay lysis buffer (50 mM Tris-HCl [pH 7.4], 150 mM NaCl, 1 mM EDTA, 0.25% sodium deoxycholate, 1% Triton X-100, 100 mM NaF, 5 mM Na3VO4, 1 mM PMSF, 1 μg/mL aprotinin, 1 μg/mL leupeptin, and 1 μg/mL pepstatin). Equal amounts of protein (20 μg) were subjected to 8% SDS-PAGE and electrically transferred onto polyvinylidene difluoride membranes (Bio-Rad Laboratories, Hercules, CA, USA). Membranes were blocked with blocking buffer (3% BSA in Tris-buffered saline containing 0.1% Tween-20 [TBST]) for 1 h at room temperature. The membranes were incubated with primary antibodies diluted in 3% BSA in TBST (1:1,000) overnight at 4 °C, washed multiple times with TBST, and incubated with secondary antibodies diluted in 3% nonfat dry milk in TBST (1:5,000) for 1 h at room temperature. The membranes were washed multiple times with TBST and visualized using an enhanced chemiluminescence detection kit (Thermo Fisher Scientific). Densitometric analysis was performed using ImageJ software.

[34] = LL6 at 10 μM, read-out: Percent Control

T1 sequence (O14920 whole entry): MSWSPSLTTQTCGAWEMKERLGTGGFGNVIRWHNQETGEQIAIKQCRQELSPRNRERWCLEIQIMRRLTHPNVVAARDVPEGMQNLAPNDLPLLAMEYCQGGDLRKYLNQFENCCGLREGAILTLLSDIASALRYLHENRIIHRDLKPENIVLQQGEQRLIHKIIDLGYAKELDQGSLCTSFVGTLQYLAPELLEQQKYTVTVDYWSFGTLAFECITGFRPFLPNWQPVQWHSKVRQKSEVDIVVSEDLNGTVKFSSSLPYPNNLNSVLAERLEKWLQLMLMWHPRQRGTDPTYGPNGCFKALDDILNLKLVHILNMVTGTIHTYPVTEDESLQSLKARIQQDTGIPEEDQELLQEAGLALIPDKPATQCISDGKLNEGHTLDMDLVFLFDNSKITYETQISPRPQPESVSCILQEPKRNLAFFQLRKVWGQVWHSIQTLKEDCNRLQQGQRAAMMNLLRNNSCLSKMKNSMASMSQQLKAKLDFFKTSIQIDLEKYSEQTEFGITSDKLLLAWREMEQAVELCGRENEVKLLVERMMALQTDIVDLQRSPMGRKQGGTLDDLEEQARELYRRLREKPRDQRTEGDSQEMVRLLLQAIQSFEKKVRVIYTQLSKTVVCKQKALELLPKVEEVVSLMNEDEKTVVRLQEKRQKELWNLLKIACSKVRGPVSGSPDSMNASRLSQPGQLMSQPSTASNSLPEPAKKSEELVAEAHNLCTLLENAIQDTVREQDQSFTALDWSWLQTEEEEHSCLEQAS

## Nc1ncnc2c1c(-c1ccc(Cl)cc1)nn2CCn1cc(COc2ccc(Nc3nccc(Nc4cnc5ccccc5c4)n3)cc2)nn1 [LL6]
[1]
  remaining binding at 10 µM: 100%
[2]
  remaining binding at 10 µM: 45%
[3]
  remaining binding at 10 µM: 100%
[4]
  remaining binding at 10 µM: 82%
[5]
  remaining binding at 10 µM: 96%
[6]
  remaining binding at 10 µM: 100%
[7]
  remaining binding at 10 µM: 100%
[8]
  remaining binding at 10 µM: 90%
[9]
  remaining binding at 10 µM: 100%
[10]
  remaining binding at 10 µM: 100%
[11]
  remaining binding at 10 µM: 100%
[12]
  remaining binding at 10 µM: 100%
[13]
  remaining binding at 10 µM: 88%
[14]; CSF1R, 11-point dose response, duplicate
  Kd: did not show dose-dependent inhibition curves
[14]; CSF1R, LL6 at 10 µM
  inhibition at 10 µM: > 65%
[14]; [34]
  remaining binding at 10 µM: 29%
[15]; KIT, 11-point dose response, duplicate
  Kd: did not show dose-dependent inhibition curves
[15]; KIT, LL6 at 10 µM
  inhibition at 10 µM: > 65%
[15]; [34]
  remaining binding at 10 µM: 1.8%
[16]
  remaining binding at 10 µM: 75%
[17]
  remaining binding at 10 µM: 40%
[18]
  remaining binding at 10 µM: 65%
[19]
  remaining binding at 10 µM: 62%
[20]
  remaining binding at 10 µM: 22%
[21]
  remaining binding at 10 µM: 97%
[22]
  remaining binding at 10 µM: 67%
[23]
  remaining binding at 10 µM: 13%
[24]
  remaining binding at 10 µM: 80%
[25]
  remaining binding at 10 µM: 90%
[26]
  remaining binding at 10 µM: 99%
[27]
  remaining binding at 10 µM: 100%
[28]
  remaining binding at 10 µM: 95%
[29]
  remaining binding at 10 µM: 89%
[30]
  remaining binding at 10 µM: 66%
[31]
  remaining binding at 10 µM: 100%
[32]
  remaining binding at 10 µM: 63%
[33]
  proapoptotic effects (PARP cleavage, chromatin condensation, sub-G1 phase): notably induced apoptosis
